Assay results as given in US4889800A (priority 1987, dated 1989).
Several values for one entry are separate records, joined by “and”; a condition that tells them apart may be missing. Equal values may be shown once. Entries after “also recorded” stand apart in the source; their conditions may differ. Where no end group is shown, it is not given here.

Tested on: guinea pigs immunized with mycobacterial cell sonicates
Conditions: guinea pig, in vivo

CAKVNIKPLQDKIC (cysteine pairing not given here) [Polypeptide (diCys Terminated), residues 1-12 of the BCG-a protein with Cys at both termini]
DCH Reaction To 250 Micrograms Of Polypeptide (positive DCH reactions/total trials): 7/7 and 4/4 and 0/4 and 0/3 and 2/4 and 5/5 and 0/5 | DCH reaction (in words): most pronounced DCH reactions; also recorded: developed a DCH reaction | delayed cutaneous hypersensitivity reaction (in words): more pronounced delayed cutaneous hypersensitivity reaction
